Measurements from patent publication US8361999B2, “Methods of treating cholesterol gallstone disease with ezetimibe” (Pontificia Universidad Catolica de Chile, priority 2005, dated 2013).
“Also recorded” adds a separate entry of the source. Marks after values point to notes of the source that are not given here.

Columns and labels:
C57BL/6J mice [1] = test: Determination of hepatic cholesterol, protocol #1; type: in vivo, mouse; conditions: 14 days
Protocol: Surgery and sample harvest. The groups were maintained for 14 days (protocol #1) or 30 days (protocol #2) in the different experimental conditions. During the last three days of the protocols, 24 h depositions were collected from the different groups (pool) to determine the fecal excretion of neutral sterols (cholesterol) and acidic sterols (bile salts). At the end of the time established in the protocols, the mice were anesthetized (between 08:00-10:00 AM) with an intraperitoneal pentobarbital injection in doses of 4.5 mg per 100 gr body weight (Amigo et al., 2000) and subjected to surgery. Standardized surgery consists in an extended […] and visualization of abdominal organs, including liver, biliary tree and gallbladder. First, we performed a resection of the gallbladder (cholecystectomy), with the cystic duct previously ligated (Amigo et al., 2002; Amigo et al., 2000; Amigo et al., 2003b). The gallbladder is removed and visually inspected to determine the presence of gallstones. Then, the gallbladder bile is extracted to analyze the presence of cholesterol crystals in the fresh samples under the microscope with polarized light (20×). Aliquots are stored at −20° C. for subsequent chemical analysis. Afterwards, the common biliary duct is cannulated (biliary fistula) with a P-10 polyethylene cannula to collect bile during 15 minutes, determine bile flow by gravimetry (1 g bile=1 ml; bile flow is expressed as μl/min/g of mouse liver) and for posterior chemical analysis of biliary lipids and glutathione, as specified later. […] Then, the liver is removed, weighted, frozen in liquid nitrogen and stored at −80 for subsequent analyses. The plasma is separated by centrifugation at 1,500 rpm and stored at −80° C. for later analysis. The animal protocols were approved by our institution Ethics Committee and the animals were treated according to international care rules for experimental animals.
Determination of hepatic cholesterol. The hepatic cholesterol content is quantified from hepatic tissue (50 mg) that is homogenized in chloroform/methanol 2:1. The homogenate is incubated at 50° C. for 30 minutes, and then distilled H2O is added to separate the phases. The mix is vortexed and incubated at 4° C. for two hours and centrifuged at 1,000 rpm for 20 minutes. The lower phase (hydrophobic-chloroform) is removed and dried under gaseous nitrogen. The lipids on the tube wall are resuspended in chloroform plus Triton X-100 0.5% v/v. Four aliquots are taken and dried at room temperature. Total cholesterol content was measured to half of the tubes by the enzymatic method described earlier for biliary cholesterol. To the other half, free cholesterol was measured in buffer (Tris-HCl pH 7.6, Triton X-100, 0.2% phenol, aminoantipyrine) plus the enzymes cholesterol oxidase and peroxidase. The samples are incubated and quantified in the same way described for total cholesterol. The cholesterol ester content for each sample is calculated as the difference between total cholesterol and free cholesterol. The values obtained in each case are given as mg cholesterol/g liver (Folch et al., 1957).

C57BL/6J mice [2] = test: Lithiasis of the gallbladder and cholesterol crystals, protocol #2 (Ezetimibe in lithogenic diet, 30 days); type: in vivo, mouse
Protocol: We used mice C57BL/6J susceptible to the development of cholelithiasis originally obtained from Jackson Corp (Bar Harbor, Me., USA) and the colonies were grown in our Laboratory of Gastroenterology, Facultad de Medicina, P. Universidad Católica de Chile. The experimental groups were fed a control chow diet low in cholesterol (<0.02% cholesterol, Prolab RMH3000, PMI Feeds Inc., St. Louis, Mo.) or a lithogenic diet (1.25% cholesterol, 0.5% cholic acid, 15% fat, TD90221, Harlan Teklad, Madison, Wis.) (Amigo et al. 2000). These mice were also treated with Ezetimibe (Zetia®, Merk/Schering Plough) or placebo. In protocol #1 Zetia® tablets were grinded in a porcelain mortar and dissolved in water to be administered to the mice in one daily dose (08 h) of 5 mg/Kg weight by gavage in a final volume of […]; the control groups were given the same volume of water by gavage without the drug. […]
Surgery and sample harvest. […] Afterwards, the common biliary duct is cannulated (biliary fistula) with a P-10 polyethylene cannula to collect bile during 15 minutes, determine bile flow by gravimetry (1 g bile=1 ml; bile flow is expressed as μl/min/g of mouse liver) and for posterior chemical analysis of biliary lipids and glutathione, as specified later. […]

For O=C1[C@H](CC[C@H](O)c2ccc(F)cc2)[C@@H](c2ccc(O)cc2)N1c1ccc(F)cc1 [Ezetimibe, (−)-1-(4-fluorophenyl)-(3R)-[3-(4-fluorophenyl)-(.S)-hydroxypropyl]-(4S)-(4-hydroxyphenyl)-2-azetidinone], the “Hepatic Cholesterol Esterified” value (C57BL/6J mice [1]; Chow + Ezetimibe) was 0.34 ± 0.16 mg/mL, the “Hepatic Cholesterol Free” value (C57BL/6J mice [1]; Chow + Ezetimibe) was 1.91 ± 0.65 mg/mL and the “Hepatic Cholesterol Total” value (C57BL/6J mice [1]; Chow + Ezetimibe) was 2.26 ± 0.59 mg/mL. The “Hepatic Cholesterol Esterified” value (C57BL/6J mice [1]; Lithogenic + Ezetimibe) was 1.31 ± 0.99^& mg/ml, the “Hepatic Cholesterol Free” value (C57BL/6J mice [1]; Lithogenic + Ezetimibe) was 2.59 ± 0.24 mg/mL and the “Hepatic Cholesterol Total” value (C57BL/6J mice [1]; Lithogenic + Ezetimibe) was 3.91 ± 1.05*^& mg/ml. The “hepatic cholesterol content smaller with Ezetimibe than with water” value (C57BL/6J mice [1]; control diet) was 20%, the “increment of total hepatic cholesterol content” value (C57BL/6J mice [1]; lithogenic diet plus Ezetimibe, 360% on lithogenic diet without Ezetimibe) was 38% and the “mice that developed gallstones or cholesterol crystals in the gallbladder” value (C57BL/6J mice [2]; lithogenic diet plus Ezetimibe 5-6 mg/kg/day in the diet, 30 days, 100% on lithogenic diet alone) was 0%. The “formation of cholesterol gallstones” value (C57BL/6J mice [2]; lithogenic diet plus Ezetimibe in the diet, 30 days (FIG. 5)) was “inhibits; also recorded: completely inhibited”.
